Reference: US20220280499A1, “NOVEL DRUG COMBINATIONS FOR TREATMENT OF A CARCINOMA” (Stichting Het Nederlands Kanker Instituue-Antoni van …, priority 2019, published 2022)

What was measured:
[1] = system: SNU449 xenograft; conditions: nude mice, lenvatinib 4 mg/kg, gefitinib 80 mg/kg, about 27 days
[2] = system: SNU449 cells; test: EGFR shRNA knockdown with lenvatinib, proliferation; assay type: cell-based, human; conditions: SNU449 cells with EGFR shRNA vectors, about 10 days
Description: FIG. 1. […] Cell growth was assessed by a colony formation assay. […] Viability was assessed by CellTiter-Blue assays. (c) The level of EGFR knockdown was determined by western blot for three independent shRNAs. HSP90 protein level served as a loading control.
After this, genomic DNA was isolated from both treated and untreated cells, and the relative abundance of gRNA was determined by next generation sequencing of the bar code contained in each gRNA vector in three biological replicates as described (Evers et al., 2016. Nat Biotechnol 34: 631-3).

[3] = system: advanced HCC; conditions: first-line treatment of advanced HCC; cited from earlier work
[4] = system: ERK1/2; test: western blot with phospho-protein-specific antibodies, ERK1/2 activation; assay type: cell-based, human; conditions: three EGFR-high liver cancer cell lines
Description: (§1) FIG. 3. […] Activation of EGFR and ERK1/2 was analyzed. HSP90 served as a control.

[5] = molecular target: FGFR2 (Homo sapiens, UniProt P21802); conditions: cited from earlier work
Sequence of FGFR2 (P21802 22-821, species assumed): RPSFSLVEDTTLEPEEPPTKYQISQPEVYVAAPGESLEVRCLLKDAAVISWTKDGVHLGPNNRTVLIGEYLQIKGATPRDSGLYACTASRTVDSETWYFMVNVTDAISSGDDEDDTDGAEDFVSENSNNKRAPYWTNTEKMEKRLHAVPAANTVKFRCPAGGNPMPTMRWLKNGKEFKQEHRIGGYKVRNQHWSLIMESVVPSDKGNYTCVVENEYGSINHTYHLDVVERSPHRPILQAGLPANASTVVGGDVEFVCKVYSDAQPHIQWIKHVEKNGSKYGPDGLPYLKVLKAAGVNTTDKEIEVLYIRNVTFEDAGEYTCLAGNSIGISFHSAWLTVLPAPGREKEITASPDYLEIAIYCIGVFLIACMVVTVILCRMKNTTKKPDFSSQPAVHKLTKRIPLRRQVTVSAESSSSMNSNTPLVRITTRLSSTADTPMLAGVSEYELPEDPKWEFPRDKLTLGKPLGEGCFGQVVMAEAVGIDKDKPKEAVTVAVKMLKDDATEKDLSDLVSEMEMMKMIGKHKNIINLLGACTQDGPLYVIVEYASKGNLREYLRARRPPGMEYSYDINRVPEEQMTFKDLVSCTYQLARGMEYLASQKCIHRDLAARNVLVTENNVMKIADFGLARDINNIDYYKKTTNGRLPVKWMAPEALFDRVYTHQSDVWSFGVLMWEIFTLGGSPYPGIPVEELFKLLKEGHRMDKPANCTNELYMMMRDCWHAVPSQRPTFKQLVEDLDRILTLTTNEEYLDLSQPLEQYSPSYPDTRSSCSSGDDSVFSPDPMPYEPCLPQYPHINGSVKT

[6] = system: EGFR; test: western blot with phospho-protein-specific antibodies, EGFR activation; assay type: cell-based, human; conditions: three EGFR-high liver cancer cell lines
Description: as §1

[7] = molecular target: VEGFR family; conditions: cited from earlier work
[8] = system: advanced HCC patients; conditions: clinical trials; cited from earlier work

Compound	tumor growth / antitumor effect [1]	proliferation with suppression of EGFR (shRNA) in combination [2]	overall survival [3]	phosphorylation (activation) of ERK1/2 [4]	Ki [5]	Tyr 1068 phosphorylation of EGFR (activation of the receptor) [6]	Ki [7]	improvement of survival compared to placebo [8]
COc1cc2ncnc(Nc3ccc(F)c(Cl)c3)c2cc1OCCCN1CCOCC1 [gefitinib, N-(3-chloro-4-fluorophenyl)-7-methoxy-6-(3-morpholin-4-ylpropoxy)quinazolin-4-amine]	little antitumor effect	–	–	–	–	–	–	–
COc1cc2nccc(Oc3ccc(NC(=O)NC4CC4)c(Cl)c3)c2cc1C(N)=O [lenvatinib, 4-[3-chloro-4-(cyclopropylcarbamoylamino)phenoxy]-7-methoxyquinoline-6-carboxamide]	little antitumor effect	marked inhibition of proliferation	13.6 months	strong increase	8.21 nM	strong increase	1 nM	–
CNC(=O)c1cc(Oc2ccc(NC(=O)Nc3ccc(Cl)c(C(F)(F)F)c3)cc2)ccn1 [sorafenib, 4-[4-[[4-chloro-3-(trifluoromethyl)phenyl]carbamoylamino]phenoxy]-N-methylpyridine-2-carboxamide]	–	–	12.3 months	–	–	–	–	less than 3 months
